# Experiments:
# PRKCD = PRKCD (Homo sapiens, UniProt Q05655); experiment: Kinase selectivity panel; type: biochemical
# CHK1 = CHK1 (Homo sapiens, UniProt O14757); experiment: Kinase selectivity panel; type: biochemical
# CSK1E = CSK1E (Homo sapiens, UniProt P49674); experiment: Kinase selectivity panel; type: biochemical
# RSK3 = RSK3 (Homo sapiens, UniProt Q15349); experiment: Kinase selectivity panel; type: biochemical
# VprBP = target: T1, VprBP (Homo sapiens, UniProt Q9Y4B6); experiment: In vitro kinase assay, VprBP (recombinant VprBP and H2A; kinase panel); type: biochemical; design: Inhibition of VprBP and H2AT120p in in vitro kinase assay (library screen): dose or concentration left out as unconfirmed
# T1 construct: His (N); made in house; host or cells: Sf9 insect cells (baculovirus)
# Method: Recombinant mononucleosomes and nucleosome arrays were reconstituted using recombinant histone octamers as recently described (Jaskelioff, M. et al. (2000) Mol. Cell. Biol. 20:3058-3068; Robinson, P. J. et al. (2008) J. Mol. Biol. 381:816-825). For kinase assays, recombinant VprBP was incubated with free histones ([…]) or reconstituted nucleosomes ([…]) in kinase buffer (50 mM Tris-HCl [pH 7.5], 20 mM EGTA, 10 mM MgCl2, 1 mM DTT, and 1 mM b-glycerophosphate) containing 10 mCi of [g-32P] ATP and 4 mM ATP for 30 min at 30_C. Proteins from each reaction were separated by SDS-PAGE, Coomassie blue stained, dried, and visualized by autoradiography. To create VprBP inhibitors, a collection of 5,000 compounds was screened in the same kinase assays at a final concentration […]. In vitro transcription assays were as described (Kim, K. et al. (2012) Mol. Cell. Biol. 32:783-796), except that G5ML-601 nucleosome arrays (100 ng) and Gal4-VP16 (15 ng) were used for the reactions. Recombinant VprBP (25 or 50 ng) and ATP (10 mM) were added before p300 (20 ng) and AcCoA (10 mM).
# AKT3 = AKT3 (Homo sapiens, UniProt Q9Y243); experiment: Kinase selectivity panel; type: biochemical
# [1] = B32B3 stability assessment in plasma; type: in vitro ADME; conditions: mouse plasma
# Method: To assess the metabolic stability of B32B3 in mouse, dog, monkey, and human plasma, the compound was spiked into blank plasma to a concentration of 10 μM. At 0, 15, 30, 60, 90, and 120 min time points, a 30 μl aliquot was collected and mixed with 270 μl acetonitrile solution for protein precipitation. After centrifugation, the supernatant was analyzed by LC-MS/MS. In vitro half-life of B32B3 in plasma was calculated using the slope (k) of the log-linear regression from the concentration remaining parent compound versus time. T1/2=−ln 2/k Mouse Pharmacokinetics of B32B3
# CDK18 = CDK18 (Homo sapiens, UniProt Q07002); experiment: Kinase selectivity panel; type: biochemical
# [2] = Mouse pharmacokinetics of B32B3; type: in vivo; conditions: plasma, dose of 5 mg/kg in mice
# Method: Mouse pharmacokinetic study was carried out using mice (n=5) that were fasted for 12 h prior to and 2 h after dosing with B32B3 (5 mg/kg). Blood samples were collected from orbital sinus at 10, 30, 60, 120, 240, and 480 min post dose. The plasma was separated from blood samples by centrifugation and analyzed in the Agilent 1200 HPLC system coupled to Agilent 6460A QQQ mass spectrophotometer. The plasma concentration-time data were analyzed by noncompartmental analysis using WinNonlin version 4.1 (Pharsight).
# HCK = HCK (Homo sapiens, UniProt P08631); experiment: Kinase selectivity panel; type: biochemical
# SYK = SYK (Homo sapiens, UniProt P43405); experiment: Kinase selectivity panel; type: biochemical
# CSNK1D = CSNK1D (Homo sapiens, UniProt P48730); experiment: Kinase selectivity panel; type: biochemical
# AKT1 = AKT1 (Homo sapiens, UniProt P31749); experiment: Kinase selectivity panel; type: biochemical
# PLK1 = PLK1 (Homo sapiens, UniProt P53350); experiment: Kinase selectivity panel; type: biochemical
# STK33 = STK33 (Homo sapiens, UniProt Q9BYT3); experiment: Kinase selectivity panel; type: biochemical
# AURKA = AURKA (Homo sapiens, UniProt O14965); experiment: Kinase selectivity panel; type: biochemical
# ATR = ATR (Homo sapiens, UniProt Q13535); experiment: Kinase selectivity panel; type: biochemical
# DU145 tumor xenografts = DU145 tumor xenografts in nude mice; type: in vivo
# Method: All animal experiments were performed according to protocols approved by the Institutional Animal Care and Use Committee. Tumor xenografts were established by subcutaneous injection of 1 3 107 DU145 cells into 8-weekold female nude mice (n=8). At day 5 after injection, the mice bearing DU145 tumor xenografts were treated with twice-weekly i.p. injections of either DMSO or B32B3 at a dose of 5 mg/kg throughout the duration of the experiment. Tumor dimension was measured by calipers twice a week, and tumor mass was calculated as described (Heo, K. et al. (2012) Oncogene 32:2510-2520). The mice were killed by asphyxiation with CO2, and tumors were excised and weighed 25 day after the cell injection. To analyze the H2AT120p, formalin-fixed and paraffin-embedded sections ([…]) from DU145 tumor xenografts were subject to immunohistochemistry. Animal studies were conducted under approved institutional protocols.
# T1 sequence (Q9Y4B6 whole entry): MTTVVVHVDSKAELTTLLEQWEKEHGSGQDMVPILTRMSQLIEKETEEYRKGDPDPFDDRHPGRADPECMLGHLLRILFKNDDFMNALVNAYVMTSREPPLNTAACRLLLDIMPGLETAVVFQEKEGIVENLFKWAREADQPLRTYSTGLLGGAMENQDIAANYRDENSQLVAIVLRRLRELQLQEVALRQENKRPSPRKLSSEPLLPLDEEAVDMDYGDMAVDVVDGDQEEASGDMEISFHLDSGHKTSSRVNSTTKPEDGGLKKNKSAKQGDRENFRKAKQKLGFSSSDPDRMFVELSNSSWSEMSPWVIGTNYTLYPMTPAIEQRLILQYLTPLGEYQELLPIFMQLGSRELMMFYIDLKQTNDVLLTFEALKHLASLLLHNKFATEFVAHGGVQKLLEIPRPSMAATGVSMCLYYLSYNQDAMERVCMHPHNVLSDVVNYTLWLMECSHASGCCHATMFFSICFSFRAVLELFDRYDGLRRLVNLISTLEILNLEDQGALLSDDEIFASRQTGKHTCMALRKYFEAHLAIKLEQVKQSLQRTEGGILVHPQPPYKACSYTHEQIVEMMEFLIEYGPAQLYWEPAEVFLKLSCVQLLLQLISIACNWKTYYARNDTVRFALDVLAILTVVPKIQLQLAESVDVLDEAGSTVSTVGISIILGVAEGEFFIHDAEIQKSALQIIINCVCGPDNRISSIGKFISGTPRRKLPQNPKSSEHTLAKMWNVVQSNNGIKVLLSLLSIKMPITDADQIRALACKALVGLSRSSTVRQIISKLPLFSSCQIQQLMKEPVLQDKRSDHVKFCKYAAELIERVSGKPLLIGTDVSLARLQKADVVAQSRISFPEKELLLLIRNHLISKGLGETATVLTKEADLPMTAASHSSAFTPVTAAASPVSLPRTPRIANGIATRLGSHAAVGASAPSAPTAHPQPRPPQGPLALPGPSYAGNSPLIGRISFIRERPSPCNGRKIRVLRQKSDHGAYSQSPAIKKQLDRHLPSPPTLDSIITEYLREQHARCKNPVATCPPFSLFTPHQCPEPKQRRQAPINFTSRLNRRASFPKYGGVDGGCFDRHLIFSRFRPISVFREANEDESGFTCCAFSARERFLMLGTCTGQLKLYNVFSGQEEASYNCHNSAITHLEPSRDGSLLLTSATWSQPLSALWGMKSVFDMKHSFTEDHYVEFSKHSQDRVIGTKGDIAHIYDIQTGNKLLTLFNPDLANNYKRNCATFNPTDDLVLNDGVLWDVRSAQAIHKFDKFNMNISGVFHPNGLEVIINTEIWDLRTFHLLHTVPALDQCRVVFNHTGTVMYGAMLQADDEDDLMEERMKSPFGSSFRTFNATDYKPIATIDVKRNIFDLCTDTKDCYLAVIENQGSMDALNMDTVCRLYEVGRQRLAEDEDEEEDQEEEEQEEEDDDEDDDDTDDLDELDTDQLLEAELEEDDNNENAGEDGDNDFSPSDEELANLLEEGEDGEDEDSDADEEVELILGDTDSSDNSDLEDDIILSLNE
# Chain of AURKA (O14965 whole entry): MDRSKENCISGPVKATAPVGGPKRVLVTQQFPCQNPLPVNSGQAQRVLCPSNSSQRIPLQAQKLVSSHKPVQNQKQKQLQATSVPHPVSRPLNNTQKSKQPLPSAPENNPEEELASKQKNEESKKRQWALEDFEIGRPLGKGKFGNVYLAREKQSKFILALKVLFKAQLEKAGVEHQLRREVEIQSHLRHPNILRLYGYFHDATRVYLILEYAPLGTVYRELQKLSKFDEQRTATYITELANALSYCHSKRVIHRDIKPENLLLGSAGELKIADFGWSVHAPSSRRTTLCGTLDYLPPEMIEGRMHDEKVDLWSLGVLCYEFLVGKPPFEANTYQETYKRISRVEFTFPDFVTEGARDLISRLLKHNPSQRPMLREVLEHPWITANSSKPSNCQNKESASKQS
# Chain of PRKCD (Q05655 whole entry): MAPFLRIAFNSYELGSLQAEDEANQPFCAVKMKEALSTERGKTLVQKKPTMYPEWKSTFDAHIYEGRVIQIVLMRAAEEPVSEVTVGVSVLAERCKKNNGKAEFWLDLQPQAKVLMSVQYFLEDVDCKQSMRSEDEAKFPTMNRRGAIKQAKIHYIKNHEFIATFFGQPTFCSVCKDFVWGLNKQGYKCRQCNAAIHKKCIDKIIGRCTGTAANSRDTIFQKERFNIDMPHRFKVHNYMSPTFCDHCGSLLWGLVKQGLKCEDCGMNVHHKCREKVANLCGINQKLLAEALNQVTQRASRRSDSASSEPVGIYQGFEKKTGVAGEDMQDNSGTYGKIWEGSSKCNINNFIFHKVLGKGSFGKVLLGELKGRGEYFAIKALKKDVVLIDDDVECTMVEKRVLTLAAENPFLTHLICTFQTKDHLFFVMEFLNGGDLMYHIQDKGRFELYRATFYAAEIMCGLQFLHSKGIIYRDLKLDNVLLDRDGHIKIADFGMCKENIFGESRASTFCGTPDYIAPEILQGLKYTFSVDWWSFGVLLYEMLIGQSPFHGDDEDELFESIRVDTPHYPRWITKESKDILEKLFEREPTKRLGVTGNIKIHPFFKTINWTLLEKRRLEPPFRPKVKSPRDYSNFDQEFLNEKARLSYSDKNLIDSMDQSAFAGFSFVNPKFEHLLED
# Chain of RSK3 (Q15349 whole entry): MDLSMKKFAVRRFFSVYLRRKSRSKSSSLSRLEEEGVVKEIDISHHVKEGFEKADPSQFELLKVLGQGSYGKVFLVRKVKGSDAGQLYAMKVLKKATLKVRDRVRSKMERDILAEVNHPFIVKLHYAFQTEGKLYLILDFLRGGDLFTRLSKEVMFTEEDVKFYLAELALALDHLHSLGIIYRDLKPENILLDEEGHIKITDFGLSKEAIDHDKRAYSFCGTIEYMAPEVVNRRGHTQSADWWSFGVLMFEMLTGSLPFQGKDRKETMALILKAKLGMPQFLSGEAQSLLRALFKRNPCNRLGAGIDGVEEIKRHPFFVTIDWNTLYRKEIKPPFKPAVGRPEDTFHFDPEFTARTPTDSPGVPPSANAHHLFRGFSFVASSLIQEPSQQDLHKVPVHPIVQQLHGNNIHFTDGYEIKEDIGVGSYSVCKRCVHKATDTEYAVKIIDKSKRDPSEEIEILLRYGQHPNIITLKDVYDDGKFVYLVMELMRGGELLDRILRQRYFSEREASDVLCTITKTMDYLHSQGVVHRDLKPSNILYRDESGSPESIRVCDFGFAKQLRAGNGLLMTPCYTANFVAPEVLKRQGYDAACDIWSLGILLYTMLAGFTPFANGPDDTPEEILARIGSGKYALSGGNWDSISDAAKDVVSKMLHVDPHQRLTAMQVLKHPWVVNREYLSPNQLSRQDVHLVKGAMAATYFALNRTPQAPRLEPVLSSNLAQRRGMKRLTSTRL
# Chain of CSNK1D (P48730 whole entry): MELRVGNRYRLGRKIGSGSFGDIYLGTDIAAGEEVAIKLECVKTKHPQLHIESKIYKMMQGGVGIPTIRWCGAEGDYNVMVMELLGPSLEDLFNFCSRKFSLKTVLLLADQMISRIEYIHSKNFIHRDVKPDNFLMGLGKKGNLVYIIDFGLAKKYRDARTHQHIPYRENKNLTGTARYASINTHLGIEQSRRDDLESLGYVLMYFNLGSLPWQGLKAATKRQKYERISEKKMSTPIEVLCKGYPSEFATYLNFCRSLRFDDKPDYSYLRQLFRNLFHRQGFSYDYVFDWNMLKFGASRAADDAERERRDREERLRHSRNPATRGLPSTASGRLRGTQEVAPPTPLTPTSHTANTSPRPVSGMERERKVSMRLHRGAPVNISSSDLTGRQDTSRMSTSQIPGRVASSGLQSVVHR
# Chain of STK33 (Q9BYT3 whole entry): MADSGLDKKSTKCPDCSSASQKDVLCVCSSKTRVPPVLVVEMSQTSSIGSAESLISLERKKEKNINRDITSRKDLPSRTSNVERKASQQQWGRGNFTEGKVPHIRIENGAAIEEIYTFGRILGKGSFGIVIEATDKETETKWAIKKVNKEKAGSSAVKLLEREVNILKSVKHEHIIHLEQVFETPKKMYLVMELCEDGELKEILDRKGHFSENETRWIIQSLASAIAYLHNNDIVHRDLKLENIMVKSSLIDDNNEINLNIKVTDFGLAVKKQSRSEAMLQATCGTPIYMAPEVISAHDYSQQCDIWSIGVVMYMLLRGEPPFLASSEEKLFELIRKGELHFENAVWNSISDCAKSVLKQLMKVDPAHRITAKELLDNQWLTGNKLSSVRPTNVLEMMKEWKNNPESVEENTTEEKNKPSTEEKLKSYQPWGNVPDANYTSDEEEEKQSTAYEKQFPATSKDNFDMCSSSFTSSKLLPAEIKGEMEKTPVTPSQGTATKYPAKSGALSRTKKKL
# Chain of AKT1 (P31749 whole entry): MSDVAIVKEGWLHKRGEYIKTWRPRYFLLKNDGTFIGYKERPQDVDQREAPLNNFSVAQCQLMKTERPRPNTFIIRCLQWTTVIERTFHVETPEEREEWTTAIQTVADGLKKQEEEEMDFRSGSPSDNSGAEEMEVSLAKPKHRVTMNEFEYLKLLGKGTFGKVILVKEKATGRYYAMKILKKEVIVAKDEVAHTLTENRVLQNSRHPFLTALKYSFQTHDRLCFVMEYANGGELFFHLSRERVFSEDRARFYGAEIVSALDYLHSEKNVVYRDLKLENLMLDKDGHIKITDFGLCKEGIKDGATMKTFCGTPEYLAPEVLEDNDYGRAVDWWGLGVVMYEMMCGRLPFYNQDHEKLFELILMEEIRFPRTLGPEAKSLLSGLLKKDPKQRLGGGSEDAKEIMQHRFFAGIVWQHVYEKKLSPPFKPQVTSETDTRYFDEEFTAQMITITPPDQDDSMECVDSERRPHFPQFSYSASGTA
structure (smiles),measurement,setting,value
c1ccc2c(CNNc3ncnc4sc5c(c34)CCCC5)c[nH]c2c1 [B32B3],IC50,PRKCD,> 10 µM
same,IC50,CHK1,> 10 µM
same,IC50,CSK1E,> 10 µM
same,IC50,RSK3,> 10 µM
same,Selectivity for VprBP over 33 other kinases,VprBP; panel of 33 human kinases,greater than 100 fold
same,IC50,"VprBP; panel of 33 human kinases, read-out: IC50 for VprBP as stated in text",0.6 µM
same,Inhibition of VprBP and H2AT120p in in vitro kinase assay (library screen),"VprBP; recombinant H2A and VprBP, western blotting with H2AT120p antibody",inhibited VprBP and decreased H2AT120p
same,IC50,AKT3,> 10 µM
same,half-life at 10 μM,[1],~7 h
same,IC50,CDK18,> 10 µM
same,Cmax,[2],1000 nM
same,IC50,HCK,> 10 µM
same,IC50,SYK,> 10 µM
same,IC50,CSNK1D,> 10 µM
same,IC50,AKT1,> 10 µM
same,IC50,PLK1,> 10 µM
same,IC50,STK33,> 10 µM
same,IC50,AURKA,> 10 µM
same,IC50,ATR,> 10 µM
same,Tumor growth inhibition,"DU145 tumor xenografts; 5 mg/kg i.p. twice a week over 3 weeks, calculated the day after the last treatment",70%-75%
same,Body weight loss during treatment,DU145 tumor xenografts; 5 mg/kg i.p. twice weekly,did not cause any significant weight loss
same,Tolerability in mice,DU145 tumor xenografts; 5 mg/kg i.p. twice weekly,well tolerated
same,Levels of H2AT120p in xenograft tumors (immunohistochemistry),DU145 tumor xenografts; compared to DMSO-treated controls,greatly decreased
